We go through 18 molecules from publication PMC6696243, “Synthesis and In Vitro Evaluation of 8-Pyridinyl-Substituted Benzo[e]imidazo[2,1-c][1,2,4]triazines as Phosphodiesterase 2A Inhibitors” (Molecules, 2019).

Where “and” joins values, the source holds several entries; their conditions need not be identical. Equal entries are not always repeated. Entries after “also recorded” stand apart in the source; their conditions may differ. Some results are limits rather than exact numbers.

The target in series [1] is T1, PDE4A1 (Homo sapiens, UniProt P27815).
T1 construct: purchased SB Drug Discovery (Scotland, U.K.); host or cells: baculoviral system
T1 sequence (P27815 1-647 isoform P27815-4): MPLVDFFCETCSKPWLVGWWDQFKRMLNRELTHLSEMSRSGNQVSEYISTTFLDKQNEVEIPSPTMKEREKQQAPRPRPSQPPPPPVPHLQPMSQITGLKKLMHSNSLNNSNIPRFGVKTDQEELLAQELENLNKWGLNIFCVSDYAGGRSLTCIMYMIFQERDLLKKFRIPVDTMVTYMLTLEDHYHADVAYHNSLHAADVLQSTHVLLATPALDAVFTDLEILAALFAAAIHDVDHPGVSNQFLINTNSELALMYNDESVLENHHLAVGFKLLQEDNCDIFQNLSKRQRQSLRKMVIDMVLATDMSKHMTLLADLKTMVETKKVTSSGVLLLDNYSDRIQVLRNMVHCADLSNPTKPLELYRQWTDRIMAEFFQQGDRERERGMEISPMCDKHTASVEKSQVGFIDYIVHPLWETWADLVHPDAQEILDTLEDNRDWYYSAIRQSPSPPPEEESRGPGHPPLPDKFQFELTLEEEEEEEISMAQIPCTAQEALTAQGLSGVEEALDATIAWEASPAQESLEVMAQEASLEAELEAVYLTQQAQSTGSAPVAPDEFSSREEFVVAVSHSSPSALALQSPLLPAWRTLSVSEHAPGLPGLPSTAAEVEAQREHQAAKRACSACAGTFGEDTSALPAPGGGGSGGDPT
Briefly: PDE4A1 radiometric enzyme inhibition assay. The class given is biochemical. As to conditions: compound at 1 µM; read-out: Inhibition of PDE Sub-Types (%) 4A1.

The target in series [2] is T2, PDE5A1 (Homo sapiens, UniProt O76074).
T2 construct: purchased SB Drug Discovery (Scotland, U.K.); host or cells: baculoviral system
The experiment in a line: PDE5A1 radiometric enzyme inhibition assay. It counts as biochemical. The note with it: compound at 1 µM; read-out: Inhibition of PDE Sub-Types (%) 5A1.

For series [3], the target named is T3, PDE9A1 (Homo sapiens, UniProt O76083).
T3 construct: purchased SB Drug Discovery (Scotland, U.K.); host or cells: baculoviral system
T3 sequence (O76083 whole entry): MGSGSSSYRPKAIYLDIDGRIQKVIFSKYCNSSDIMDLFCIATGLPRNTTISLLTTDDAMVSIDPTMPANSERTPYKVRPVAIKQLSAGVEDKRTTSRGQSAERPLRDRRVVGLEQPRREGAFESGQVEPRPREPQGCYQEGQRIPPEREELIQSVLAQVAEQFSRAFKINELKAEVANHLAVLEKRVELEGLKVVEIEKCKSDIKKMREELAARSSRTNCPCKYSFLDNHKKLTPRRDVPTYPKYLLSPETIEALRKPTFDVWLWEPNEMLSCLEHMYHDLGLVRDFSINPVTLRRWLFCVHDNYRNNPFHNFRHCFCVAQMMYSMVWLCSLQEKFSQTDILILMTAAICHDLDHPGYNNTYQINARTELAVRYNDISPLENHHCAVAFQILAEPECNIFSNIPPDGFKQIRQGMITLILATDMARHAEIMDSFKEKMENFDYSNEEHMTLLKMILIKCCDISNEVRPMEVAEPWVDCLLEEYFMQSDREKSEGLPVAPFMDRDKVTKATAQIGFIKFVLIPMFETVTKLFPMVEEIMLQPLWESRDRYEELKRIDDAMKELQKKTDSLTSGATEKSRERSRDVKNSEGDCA
The experiment in a line: PDE9A1 radiometric enzyme inhibition assay. The note with it: compound at 1 µM; read-out: Inhibition of PDE Sub-Types (%) 9A1. The class given is biochemical.

For series [4], the target named is T4, human PDE2A3 (Homo sapiens, UniProt O00408). The experiment in a line: PDE2A3 radiometric enzyme inhibition assay. As to conditions: for Inhibition of PDE Sub-Types (%) 2A3: compound at 10 nM; for Selectivity Ratio (PDE10A/PDE2A): ratio of IC50 PDE10A to IC50 PDE2A, fold.
T4 sequence (O00408 whole entry): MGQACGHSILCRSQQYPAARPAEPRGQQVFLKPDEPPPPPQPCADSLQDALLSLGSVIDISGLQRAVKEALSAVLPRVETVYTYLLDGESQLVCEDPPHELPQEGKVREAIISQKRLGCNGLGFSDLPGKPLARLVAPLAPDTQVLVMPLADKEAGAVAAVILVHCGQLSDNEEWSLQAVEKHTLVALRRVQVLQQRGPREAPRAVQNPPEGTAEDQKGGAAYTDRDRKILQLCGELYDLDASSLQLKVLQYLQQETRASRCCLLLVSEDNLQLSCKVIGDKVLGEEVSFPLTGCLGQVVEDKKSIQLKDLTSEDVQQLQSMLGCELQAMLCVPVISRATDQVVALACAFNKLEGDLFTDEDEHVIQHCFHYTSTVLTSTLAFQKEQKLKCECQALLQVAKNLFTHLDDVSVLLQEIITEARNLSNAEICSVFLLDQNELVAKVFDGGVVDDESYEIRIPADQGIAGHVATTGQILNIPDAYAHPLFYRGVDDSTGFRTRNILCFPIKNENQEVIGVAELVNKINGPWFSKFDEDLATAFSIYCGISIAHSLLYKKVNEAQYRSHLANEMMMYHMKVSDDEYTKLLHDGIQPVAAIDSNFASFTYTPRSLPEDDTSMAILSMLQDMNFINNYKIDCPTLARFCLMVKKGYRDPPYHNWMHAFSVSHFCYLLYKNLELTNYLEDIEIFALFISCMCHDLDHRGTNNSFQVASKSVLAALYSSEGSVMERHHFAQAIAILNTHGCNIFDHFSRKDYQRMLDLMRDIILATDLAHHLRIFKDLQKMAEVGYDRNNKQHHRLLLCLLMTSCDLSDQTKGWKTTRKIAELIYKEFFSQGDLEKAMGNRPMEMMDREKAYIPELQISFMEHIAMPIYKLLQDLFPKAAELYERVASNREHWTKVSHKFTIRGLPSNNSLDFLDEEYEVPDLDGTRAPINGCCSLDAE
Description: (§1) The phosphodiesterase assays were performed using recombinant human PDE enzymes expressed in a baculoviral system. […] The radiometric assay was a modification of the two-step method of Thompson and Appleman [45], which was adapted for 96-well plate format.
(§2) Firstly, tritium-labeled cyclic AMP or cyclic GMP was hydrolyzed to 5′-AMP or 5′-GMP by phosphodiesterase. The 5′-AMP or 5′-GMP was then further hydrolyzed to adenosine or guanosine by nucleotidase in snake venom. An anion-exchange resin bound all charged nucleotides and left [^3H]adenosine or [^3H]guanosine as the only labeled compound to be counted by liquid scintillation. Briefly, 50 µL of diluted human PDE enzyme were incubated with 50 µL of [^3H]-cAMP or [^3H]-cGMP and 11 µL of 50% DMSO (or compound dilution) for 20 min (at 30 °C). Reactions were carried out in a Greiner 96-deep well 1-mL master-block. The enzyme was diluted in 20 mM Tris HCl pH 7.4 and [^3H]-cAMP or [^3H]-cGMP are diluted in 10 mM MgCl2, 40 mM Tris HCl pH 7.4. The reaction is terminated by denaturing the PDE enzyme (at 70 °C for 2 min), after which 25 µL of snake venom nucleotidase were added and incubated for 10 min (at 30 °C). Plates were centrifuged for 9 seconds before incubation. After incubation, 200 µL of Dowex resin were added, and the plate was shaken for 20 min then centrifuged for 3 min at 2500 r.p.m. Fifty microliters of supernatant were removed and added to 200 µL of MicroScint-20 in white plates (Greiner 96-well Optiplate) and shaken for 30 min before reading on a Perkin Elmer TopCount Scintillation Counter.
(§3) Compounds were tested at a concentration of 10 nM against human PDE2A3 and at 1 µM for PDE4A1, PDE5A, PDE6AB, PDE9A1, and PDE10A1. The percentage of inhibition of the compounds and standard inhibitors was determined and compared to historical assay data to ensure that they fell within acceptable ranges.
Series [5] has as its target T5, PDE10A1 (Homo sapiens, UniProt Q9Y233). Briefly: PDE10A1 radiometric enzyme inhibition assay. The note with it: for Inhibition of PDE Sub-Types (%) 10A1: compound at 1 µM.
Description: as §1, §2, §3
Series [6] concerns PDE2A. The note with it: cited from earlier work; for IC50: Figure 1.
Series [7] relates to PDE10A. Set-up: method as in PMID 27213312, PMID 26016549, PMID 29498659. The note with it: Figure 1; cited from earlier work.
Series [8] addresses T6, PDE1A3 (Homo sapiens, UniProt P54750).
T6 construct: purchased SB Drug Discovery (Scotland, U.K.); host or cells: baculoviral system
The experiment in a line: PDE1A3 radiometric enzyme inhibition assay. The class given is biochemical. As to conditions: measured at 1 µM.

Series [9] has as its target T7, PDE3A (Homo sapiens, UniProt Q14432).
T7 construct: purchased SB Drug Discovery (Scotland, U.K.); host or cells: baculoviral system
The experiment in a line: PDE3A radiometric enzyme inhibition assay. The class given is biochemical. As to conditions: measured at 1 µM.

In series [10] the target is T8, PDE6AB (Homo sapiens, UniProt P16499+P35913).
T8 construct: purchased SB Drug Discovery (Scotland, U.K.); host or cells: baculoviral system
Briefly: PDE6AB radiometric enzyme inhibition assay. It counts as biochemical. The note with it: measured at 1 µM.

The target in series [11] is T9, PDE7A (Homo sapiens, UniProt Q13946).
T9 construct: purchased SB Drug Discovery (Scotland, U.K.); host or cells: baculoviral system
The experiment in a line: PDE7A radiometric enzyme inhibition assay. It counts as biochemical. As to conditions: measured at 1 µM.

Series [12] has as its target T10, PDE8A1 (Homo sapiens, UniProt O60658).
T10 construct: purchased SB Drug Discovery (Scotland, U.K.); host or cells: baculoviral system
The experiment in a line: PDE8A1 radiometric enzyme inhibition assay. It counts as biochemical. As to conditions: measured at 1 µM.

In series [13] the target is T11, PDE11A (Homo sapiens, UniProt Q9HCR9).
T11 construct: purchased SB Drug Discovery (Scotland, U.K.); host or cells: baculoviral system
T11 sequence (Q9HCR9 whole entry): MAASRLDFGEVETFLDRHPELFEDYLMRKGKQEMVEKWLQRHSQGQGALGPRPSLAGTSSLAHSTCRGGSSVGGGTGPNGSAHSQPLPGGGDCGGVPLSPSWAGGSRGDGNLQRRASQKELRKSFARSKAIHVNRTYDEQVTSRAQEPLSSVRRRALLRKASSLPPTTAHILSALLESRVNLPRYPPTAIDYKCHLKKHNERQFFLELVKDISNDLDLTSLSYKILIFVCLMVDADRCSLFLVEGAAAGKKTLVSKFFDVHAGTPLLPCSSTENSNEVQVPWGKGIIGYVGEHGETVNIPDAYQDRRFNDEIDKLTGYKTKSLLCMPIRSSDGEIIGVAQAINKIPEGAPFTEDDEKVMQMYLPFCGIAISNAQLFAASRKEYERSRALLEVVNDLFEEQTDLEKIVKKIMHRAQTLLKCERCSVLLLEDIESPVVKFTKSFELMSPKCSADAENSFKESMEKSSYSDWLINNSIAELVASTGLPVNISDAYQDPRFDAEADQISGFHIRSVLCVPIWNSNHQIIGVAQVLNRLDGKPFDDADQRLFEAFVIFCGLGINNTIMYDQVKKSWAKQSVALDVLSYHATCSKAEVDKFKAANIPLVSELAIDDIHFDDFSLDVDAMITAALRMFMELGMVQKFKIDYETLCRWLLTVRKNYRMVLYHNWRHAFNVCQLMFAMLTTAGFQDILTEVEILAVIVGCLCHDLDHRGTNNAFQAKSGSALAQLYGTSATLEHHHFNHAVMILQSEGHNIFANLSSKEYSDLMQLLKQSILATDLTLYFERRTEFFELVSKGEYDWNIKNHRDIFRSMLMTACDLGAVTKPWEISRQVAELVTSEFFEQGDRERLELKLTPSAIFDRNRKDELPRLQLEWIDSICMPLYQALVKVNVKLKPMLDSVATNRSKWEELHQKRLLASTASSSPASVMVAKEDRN
Briefly: PDE11A radiometric enzyme inhibition assay. The class given is biochemical. As to conditions: measured at 1 µM.

Series [14] is described as follows: Incubation with mouse liver microsomes, HPLC-UV-MS.
Description: After protein precipitation by addition of acetonitrile and subsequent centrifugation, the supernatant was examined by HPLC-UV-MS.
Analogously, preincubated NADPH (2 mM) was added, and the mixtures were gently shaken at 37 °C. After 90 min, portions of 1.0 mL of cold acetonitrile (−20 °C) were added, respectively, followed by vigorous shaking (30 s), cooling on ice (4 min), and centrifugation at 14,000 rpm (10 min). Supernatants were concentrated at 50 °C under a flow of nitrogen to provide residual volumes of 40–60 µL, which were reconditioned by adding acetonitrile/water 1:1 (v/v) to obtain samples of 100 µL, which were stored at 4 °C until analyzed by HPLC-UV-MS.
HPLC-UV-MS analyses were performed on a ReproSil-Pur 120 C18-AQ-column, 125 mm × 3 mm, 3 µm (Dr. Maisch GmbH, Ammerbuch, Germany) equipped with an appropriate precolumn at 25 °C and a flow rate of 0.7 mL/min. The solvent system consisted of Eluent A: water, containing 2 mM ammonium acetate, and Eluent B: water/acetonitrile 20/80 (v/v), containing 2 mM ammonium acetate. Two methods were applied. Method A (gradient elution, % acetonitrile): 0–1.5 min, 10%; 1.5–10 min, 10–80%; 10-13 min, 80%; 13–16 min 10%. Method B (isocratic elution, % acetonitrile): 0–25 min, 42%. […] MSQ Plus single quadrupole mass spectrometer was operated in positive electrospray ionization mode: probe temperature 500 °C, needle voltage 5 V, cone voltage 75 V.
For series [15], the target named is T4, human PDE2A3. The experiment in a line: biochemical.
Description: as §1, §2, §3
Series [16] addresses T5, PDE10A1. The experiment in a line: biochemical.
Description: as §1, §2, §3

T5 sequence (Q9Y233 1-779 isoform Q9Y233-1): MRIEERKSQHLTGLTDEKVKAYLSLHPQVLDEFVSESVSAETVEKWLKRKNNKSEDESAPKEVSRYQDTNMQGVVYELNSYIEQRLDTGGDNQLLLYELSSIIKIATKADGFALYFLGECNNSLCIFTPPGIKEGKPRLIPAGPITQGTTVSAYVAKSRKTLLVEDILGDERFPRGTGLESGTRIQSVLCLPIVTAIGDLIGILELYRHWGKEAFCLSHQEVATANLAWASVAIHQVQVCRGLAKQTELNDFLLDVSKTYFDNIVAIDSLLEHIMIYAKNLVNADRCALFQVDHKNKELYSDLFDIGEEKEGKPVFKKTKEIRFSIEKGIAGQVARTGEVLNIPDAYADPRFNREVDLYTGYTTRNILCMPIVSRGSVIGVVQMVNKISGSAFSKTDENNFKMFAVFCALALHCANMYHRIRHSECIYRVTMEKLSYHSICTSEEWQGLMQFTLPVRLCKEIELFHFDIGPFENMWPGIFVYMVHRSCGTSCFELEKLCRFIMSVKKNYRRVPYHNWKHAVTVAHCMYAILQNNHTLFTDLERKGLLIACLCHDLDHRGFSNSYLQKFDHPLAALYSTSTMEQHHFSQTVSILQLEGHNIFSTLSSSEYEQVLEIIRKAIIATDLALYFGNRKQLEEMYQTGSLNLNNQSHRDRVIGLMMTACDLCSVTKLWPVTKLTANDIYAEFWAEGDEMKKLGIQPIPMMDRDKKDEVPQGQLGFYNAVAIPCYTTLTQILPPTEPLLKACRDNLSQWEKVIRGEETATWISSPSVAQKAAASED
T10 sequence (O60658 whole entry): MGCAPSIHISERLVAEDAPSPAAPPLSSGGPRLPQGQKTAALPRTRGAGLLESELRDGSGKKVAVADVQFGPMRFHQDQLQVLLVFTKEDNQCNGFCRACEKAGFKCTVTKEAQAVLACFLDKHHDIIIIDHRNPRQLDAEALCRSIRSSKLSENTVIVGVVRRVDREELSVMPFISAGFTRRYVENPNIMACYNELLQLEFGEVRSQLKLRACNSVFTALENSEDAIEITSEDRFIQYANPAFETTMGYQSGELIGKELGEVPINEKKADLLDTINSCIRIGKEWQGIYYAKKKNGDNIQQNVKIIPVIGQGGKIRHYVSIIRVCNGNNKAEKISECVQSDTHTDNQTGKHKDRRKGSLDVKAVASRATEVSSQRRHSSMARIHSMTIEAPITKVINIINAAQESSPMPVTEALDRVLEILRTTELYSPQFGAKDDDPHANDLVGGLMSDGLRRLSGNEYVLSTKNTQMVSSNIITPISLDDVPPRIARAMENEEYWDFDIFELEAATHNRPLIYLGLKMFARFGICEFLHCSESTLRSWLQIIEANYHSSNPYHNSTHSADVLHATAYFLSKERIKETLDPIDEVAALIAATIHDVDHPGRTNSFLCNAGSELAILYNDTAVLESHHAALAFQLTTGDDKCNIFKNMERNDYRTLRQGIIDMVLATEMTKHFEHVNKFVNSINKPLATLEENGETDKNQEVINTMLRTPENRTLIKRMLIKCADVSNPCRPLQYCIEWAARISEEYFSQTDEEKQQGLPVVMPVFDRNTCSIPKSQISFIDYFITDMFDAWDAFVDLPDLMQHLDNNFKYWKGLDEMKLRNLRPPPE

Take `COc1ccc(Cl)c(-c2nc(C)c3nnc4ccc(-c5cccnc5F)cc4n23)c1` [BIT5, 1-(2-Chloro-5-methoxyphenyl)-8-(2-fluoropyridin-3-yl)-3 methylbenzo[e]imidazo[5,1-c][1,2,4]triazine]: the inhibition at 1 µM in [1], in [2] and in [3] was below 0% each time. Also, in [4], the “Inhibition of PDE Sub-Types (%) 2A3” value is “NI (NI: No Inhibition)”. In addition, in [5], the “Selectivity over PDE10A compared to BIT7” value is “four”. Also, the “Inhibition of PDE Sub-Types (%) 10A1” value in [5] was determined as 22.1%.
In the case of `COc1ccc2nnc3c(C)nc(-c4cc(OCCCCF)ccc4F)n3c2n1` [TA4], in [6], the IC50 is 7.3 nM and the “Selectivity for PDE2A over PDE10A” value is 125 fold. Further, the IC50 in series [7] was 913 nM.
As for `COc1ccc(Cc2nn3c([C@H](CCCc4ccccc4)[C@H](C)O)nc(C)c3c(=O)[nH]2)cc1OC` [BAY 60-7550], the IC50 in series [6] was 4.7 nM.
`Cc1nc(-c2cc(OCC3(C)COC3)ccc2Cl)n2c1nnc1ccc(-c3ccc(F)nc3)cc12` [BIT2, 1-(2-Chloro-5-((3-methyloxetan-3-yl)methoxy)phenyl)-8-(6-fluoropyridin-3-yl)-3-methylbenzo[e]imidazo[5,1-c][1,2,4]triazine]: the results for the inhibition at 1 µM in [1], in series [2] and in series [3] were 64.1%, below 0% and below 0%, respectively. Besides, the “Inhibition of PDE Sub-Types (%) 2A3” value in [4] is on record as 8.52%. Also, in series [5], the “Inhibition of PDE Sub-Types (%) 10A1” value is 2.46%.
Turning to `COc1cc(Br)cc2c1nc(C)c1c(C)nc(-c3ccc(F)nc3)n12` [AQ28A], the values for the IC50 in series [6] and in [7] were above 1000 nM and 2.95 nM, respectively.
With `COc1ccc(Cl)c(-c2nc(C)c3nnc4ccc(-c5ccnc(F)c5)cc4n23)c1` [BIT1, 1-(2-Chloro-5-methoxyphenyl)-8-(2-fluoropyridin-4-yl)-3methylbenzo[e]imidazo[5,1-c][1,2,4]triazine], the inhibition at 1 µM in [1] is 58.6%; in [2], 29.3%; in series [3] it was below 0%; in series [8], 12.6%; in series [9] it was 20%; in series [10] it was 16.8%. The inhibition at 1 µM came to 16.4% in series [11], 23.3% in series [12] and 14.5% in series [13]. In [14] (MLM 1 mg/mL, NADPH 2 mM, 20 µM compound, 37 °C, 90 min), the “Metabolic stability in vitro” value is recorded as “unchanged BIT1 could still be detected in high amounts; also recorded: considerable metabolic stability; also recorded: sufficiently stable”.
In the case of `COc1ccc(F)c(-c2nc(C)c3nnc4ccc(-c5ccncc5)cc4n23)c1` [BIT9, 1-(2-Fluoro-5-methoxyphenyl)-3-methyl-8-(pyridin-4-yl)benzo[e]imidazo[5,1-c][1,2,4]triazine], the inhibition at 1 µM was found to be 86.8% in series [1], 57.7% in series [2] and 17.5% in series [3]. Also, the IC50 was found to be 17.7 nM in [15] and 20.2 nM in series [16]. In addition, in series [4], the “Inhibition of PDE Sub-Types (%) 2A3” value came to 80.5%. In series [4], the “Selectivity Ratio (PDE10A/PDE2A)” value came to 1.1. In series [5], the “Inhibition of PDE Sub-Types (%) 10A1” value stood at 96.6%.
As for `COc1ccc(Cl)c(-c2nc(C)c3nnc4ccc(F)cc4n23)c1` [III], the values for the IC50 in [6] and in series [7] were 20.1 nM and 183 nM, respectively.
As for `COc1ccc2nnc3c(C)nc(-c4cc(OCCCF)ccc4F)n3c2n1` [TA3], the IC50 in [6] is 11.4 nM; in [7], 318 nM. For the same molecule, the “Selectivity for PDE2A over PDE10A” value in series [6] is reported as 28 fold.
As for `COc1ccc(F)c(-c2nc(C)c3nnc4ccc(-c5ccnc(F)c5)cc4n23)c1` [BIT6, 1-(2-Fluoro-5-methoxyphenyl)-8-(2-fluoropyridin-4-yl)-3-methylbenzo[e]imidazo[5,1-c][1,2,4]triazine], the inhibition at 1 µM is 54.2% in [1], 13.6% in [2] and 28.4% in series [3]. Moreover, the IC50 in series [15] turned out to be 65.1 nM; in series [16], 168 nM. Besides, in [4] (0.01 µM), the “Inhibition of PDE Sub-Types (%) 2A3” value was 56% and 56.6%. Besides, in series [4], the “Selectivity Ratio (PDE10A/PDE2A)” value was 2.5. For the same molecule, the “Inhibition of PDE Sub-Types (%) 10A1” value in series [5] worked out at 74.0%.
Take `CCCCOc1ccc(F)c(-c2nc(C)c3nnc4ccc(OCCF)nc4n23)c1` [TA5]: the IC50 in series [7] is above 1000 nM.
Regarding `COc1ccc(F)c(-c2nc(C)c3nnc4ccc(-c5cccnc5)cc4n23)c1` [BIT8, 1-(2-Fluoro-5-methoxyphenyl)-3-methyl-8-(pyridin-3-yl)benzo[e]imidazo[5,1-c][1,2,4]triazine], the inhibition at 1 µM in [1] was 13.9%; in series [2], 36.2%; in [3], below 0%. Further, the “Inhibition of PDE Sub-Types (%) 2A3” value in [4] is recorded as “NI (NI: No Inhibition)”. In series [5], the “Inhibition of PDE Sub-Types (%) 10A1” value amounted to 55.5%.
For the molecule `COc1ccc(Cl)c(-c2nc(C)c3nnc4ccc(-c5cncc(F)c5)cc4n23)c1` [BIT7, 1-(2-Chloro-5-methoxyphenyl)-8-(3-fluoropyridin-5-yl)-3 methylbenzo[e]imidazo[5,1-c][1,2,4]triazine], the inhibition at 1 µM was 65.7% in [1], 25.1% in series [2] and 11.5% in series [3]. Besides, the “Inhibition of PDE Sub-Types (%) 10A1” value in [5] is on record as 87.0%.
Consider `Cc1nc(-c2cc(OCC3(C)COC3)ccc2Cl)n2c1nnc1ccc(-c3ccnc(F)c3)cc12` [BIT3, 1-(2-Chloro-5-((3-methyloxetan-3-yl)methoxy)phenyl)-8-(2-fluoropyridin-4-yl)-3-methylbenzo[e]imidazo[5,1-c][1,2,4]triazine], for which the inhibition at 1 µM in series [1] was 72.7%; in series [2], below 0%; in series [3], below 0%. Besides, the “Inhibition of PDE Sub-Types (%) 2A3” value in series [4] is on record as 13.2%. Moreover, the “Inhibition of PDE Sub-Types (%) 10A1” value in [5] stood at 28.2%.
In the case of `C[C@]12CC[C@H]3[C@@H](CCC4=CC(=O)CC[C@@]43C)[C@@H]1CC[C@@H]2O` [testosterone, reference compound], the “Conversion of positive control substrate” value in series [14] (MLM with NADPH, confirmed by HPLC) is “complete conversion”.
Turning to `CCCCOc1ccc(F)c(-c2nc(C)c3nnc4ccc(OC)nc4n23)c1` [TA1, reference compound], the inhibition at 1 µM in series [1] is 24.9%; in series [2], 3.08%; in [3] it was below 0%.
With `COc1ccc(Cl)c(-c2nc(C)c3nnc4c(OC)cc(F)cc4n23)c1` [II], the IC50 was 108 nM in series [6] and 2.45 nM in [7].
For the molecule `COc1ccc(Cl)c(-c2nc(C)c3nnc4ccc(-c5ccc(F)nc5)cc4n23)c1` [BIT4, 1-(2-Chloro-5-methoxyphenyl)-8-(6-fluoropyridin-3-yl)-3 methylbenzo[e]imidazo[5,1-c][1,2,4]triazine], the inhibition at 1 µM in series [1], in series [2] and in series [3] was below 0% in each case. Further, in [4], the “Inhibition of PDE Sub-Types (%) 2A3” value turned out to be 2.63%. Further, the “Selectivity over PDE10A compared to BIT7” value in [5] was “eight”. For the same molecule, the “Inhibition of PDE Sub-Types (%) 10A1” value in series [5] was found to be 10.8%.
